Test results: patent US10993923B2, “Method for ameliorating fibrosis using 1-[4-chloro-3-(trifluoromethyl)phenyl]-3-[3-(4-cyanophenoxy)phenyl]urea” (priority 2016, dated 2021)

Legend:
[1] = tested on: mouse fibroblasts (NIH3T3 cell line); assay: Cell viability assay (WST-1), NIH3T3 fibroblasts; assay type: cell-based; details: FIG. 7A
Method: Murine NIH3T3 fibroblasts and human lung epithelial cells (A549 cells) were purchased from the Bioresource Collection and Research Center (Hsinchu, Taiwan). Cells were cultured in Dulbecco's modified eagle medium (DMEM) containing 10% fetal bovine serum (FBS), 100 μg/mL penicillin, 100 μg/mL streptomycin. Cells were cultured at 37° C. in a humidified atmosphere of 5% CO2 and passaged every 4 to 5 days at 1:4 ratios.
Murine NIH3T3 fibroblasts were seeded into 96-well plates (1×10^3 cells/well). To measure the cell viability and the cell proliferation, 10% WST-1 (cell proliferation reagent WST-1, Roche) was added to each well and reacted for 3 hours. The reaction was catalyzed by mitochondrial reductase in active cells and the optical density (OD) was calculated by measuring the absorbance at 450 nm via a Bio-Rad ELISA analyzer.

[2] = tested on: CCl4-induced hepatic fibrosis in mice; assay: CCl4-induced hepatic fibrosis mice prevention model; assay type: in vivo, male C57BL/6J mice; details: concurrently administered with CCl4 for 4 weeks; FIG. 11A-11E
Description: (§1) In male C57BL/6J mice, liver fibrosis was induced by carbon tetrachloride (CCl4). The mice were given peritoneal injection of carbon tetrachloride for 4 or 8 weeks every two weeks.
(§2) The mice liver samples were stored in 10% formaldehyde, dehydrated with gradient alcohol, embedded in paraffin blocks, sectioned to a thickness of 3 μm, placed on glass slides, and stained with Picrosirius Red Stain kit (ScyTek, USA), following the manufacturer's instructions. The severity of liver fibrosis was graded according to the Ishak fibrosis score. Quantitative collagen-positive area (qCPA) was determined by densitometry via ImageJ software. Hepatic hydroxyproline concentrations were measured by the hydroxyproline assay kit (Biovision, USA), following the manufacturer's instructions Immunohistochemistry was performed by the Leica BOND-MAX automatic chromatograph (Leica Biosystems, Germany), following the manufacturer's instructions.

[3] = tested on: CCl4-induced hepatic fibrosis in mice; assay: CCl4-induced hepatic fibrosis mice regression model; assay type: in vivo, male C57BL/6J mice; details: 10 mg/kg for 4 weeks without CCl4 after 8 weeks CCl4 induction
Description: as §1, §2

primary mouse HSCs = assay: Cell viability (MTS), primary mouse HSCs; assay type: cell-based; details: 24 or 48 hours; FIG. 14A
Method: (§3) Rat immortal hepatic stellate cell line HSC-T6 and LX2 human hepatic stellate cell line were provided by Professor Scott Friedman of Mount Sinai Hospital in New York, USA. The primary mouse HSCs were obtained via the way: after intubating the hepatic portal vein of the mouse, the cells were perfused with Leffert's and ethylene glycol bis-aminoethyl ether tetraacetic acid (EGTA) buffer in situ, and then collagenase was injected to digest the liver tissue, and then the primary mouse HSCs were isolated by Histodnz gradient. […]
(§4) HSC-T6 cells, LX2 cells or primary mouse HSCs cells were seeded in 96-well plates (5,000 cells/well) for 24 hours, and the cells were treated with various concentrations of 1-[4-chloro-3-(trifluoromethyl)phenyl]-3-[3-(4-cyanophenoxy)phenyl]urea or Sorafenib for 24 or 48 hours. The effect of each reagent on the cell viability and the cell were evaluated by CellTiter 96 AQueous one solution of 3-(4,5-dimethylthiazol-2-yl)-5-(3-carboxymethoxyphenyl)-2-(4-sulfophenyl)-2H-tetra zolium, an inner, MTS (Promega, USA). […] The proportion of apoptotic cells was mixed the early (Annexin V+/PI−) and the late (Annexin V+/PI+) apoptotic cells measured by BD FACS Verse flow cytometry (BD, USA).

HSC-T6 cells = assay: Apoptosis (Annexin V / propidium iodide flow cytometry), HSC-T6 cells; assay type: cell-based, rat
Method: as §3
as §4, with “(BD, USA). […]” for “(BD, USA).”

SHP-1 = target: T1, SHP-1 (Rattus norvegicus, UniProt P81718); assay: SHP-1 phosphatase activity, HSC-T6 cells; assay type: cell-based; details: sorafenib 5 μM, compound 2.5 or 5 μM, FIG. 16C
T1 construct: endogenous in cells; host or cells: HSC-T6 cells
T1 sequence (P81718 whole entry): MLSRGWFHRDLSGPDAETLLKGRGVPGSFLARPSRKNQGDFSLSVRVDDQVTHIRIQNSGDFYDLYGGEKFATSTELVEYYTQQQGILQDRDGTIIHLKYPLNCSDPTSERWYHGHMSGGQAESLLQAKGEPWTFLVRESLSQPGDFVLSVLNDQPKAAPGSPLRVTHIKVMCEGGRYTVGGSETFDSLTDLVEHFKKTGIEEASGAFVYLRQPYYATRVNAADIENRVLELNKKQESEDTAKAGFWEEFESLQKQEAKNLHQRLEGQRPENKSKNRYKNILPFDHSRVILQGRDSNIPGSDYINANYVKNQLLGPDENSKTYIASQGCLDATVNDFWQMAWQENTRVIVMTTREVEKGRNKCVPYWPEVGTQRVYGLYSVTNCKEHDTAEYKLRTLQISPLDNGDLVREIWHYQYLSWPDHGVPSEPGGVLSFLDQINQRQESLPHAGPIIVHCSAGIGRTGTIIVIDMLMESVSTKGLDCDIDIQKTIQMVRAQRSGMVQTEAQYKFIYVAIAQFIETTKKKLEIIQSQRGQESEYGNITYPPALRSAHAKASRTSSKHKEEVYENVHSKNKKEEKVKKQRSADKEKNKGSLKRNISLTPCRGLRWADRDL

**Q.** For `N#Cc1ccc(Oc2cccc(NC(=O)Nc3ccc(Cl)c(C(F)(F)F)c3)c2)cc1` [1-[4-chloro-3-(trifluoromethyl)phenyl]-3-[3-(4-cyanophenoxy)phenyl]urea], which “survival rate of mouse fibroblasts” value [1] is on record?
**A.** reduced the survival rate of mouse fibroblasts (NIH3T3 cell line) in a dose-dependent manner

**Q.** And the “hepatic fibrosis (Picrosirius Red staining, qCPA, Ishak fibrosis score, α-SMA expression, hydroxyproline concentration)” value [2]?
**A.** significant fibrosis regression

**Q.** And the “qCPA (quantitative collagen-positive area)” value ([3]; FIG. 12G)?
**A.** significantly decreased

**Q.** And the Ishak fibrosis score ([3]; FIG. 12H)?
**A.** significantly decreased

**Q.** And the “viability of primary mouse HSCs” value (primary mouse HSCs)?
**A.** dose- and time-dependent effects to reduce the viability

**Q.** What about the HSC apoptosis (HSC-T6 cells; HSC-T6, 24 hours, compared with sorafenib, FIG. 14B) of the same molecule?
**A.** significantly increased HSC apoptosis in a dose-dependent manner

**Q.** And the “compound-induced apoptosis in STAT3-overexpressing HSCs” value (HSC-T6 cells; rat STAT3 stable overexpression clone, FIG. 15C)?
**A.** significantly abolished

**Q.** What about the SHP-1 activity (SHP-1) of the same molecule?
**A.** significantly increased the SHP-1 activity at a lower concentration
